This note sets out measurements from ChEMBL document CHEMBL5727507, “Substituted indole Mcl-1 inhibitors” (2020).

The assay deals with Induced myeloid leukemia cell differentiation protein Mcl-1 (Homo sapiens, UniProt Q07820). Nature of the assay: Fluorescence Polarization Anisotropy Competition Assay: Compound affinity was measured using a fluorescence polarization anisotropy competition assay. Anisotropy measurements were carried out in 384-well, black, flat-bottom plates (Greiner Bio-one, Monroe, N.C., USA). For orientation: Fluorescence polarisation rises when a labelled molecule tumbles more slowly, as on binding a larger partner.
Sequence of Induced myeloid leukemia cell differentiation protein Mcl-1 (Q07820 whole entry): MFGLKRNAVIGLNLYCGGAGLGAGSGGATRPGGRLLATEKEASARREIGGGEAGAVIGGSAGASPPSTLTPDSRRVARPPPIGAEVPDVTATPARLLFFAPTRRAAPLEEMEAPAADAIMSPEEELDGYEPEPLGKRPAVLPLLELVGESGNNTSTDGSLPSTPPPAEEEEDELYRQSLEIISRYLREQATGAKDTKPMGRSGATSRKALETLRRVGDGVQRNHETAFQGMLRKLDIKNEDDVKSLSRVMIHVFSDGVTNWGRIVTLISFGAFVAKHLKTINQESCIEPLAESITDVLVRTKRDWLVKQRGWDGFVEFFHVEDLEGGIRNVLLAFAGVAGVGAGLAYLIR
`Cc1cc(OCCCc2c(C(=O)N(C)c3ccc(C(=O)O)cc3)[nH]c3c(-c4c(C)nn(C)c4C)c(Cl)ccc23)cc(C)c1Cl`: the Ki (usually a measure of affinity in units of concentration, obtained from inhibition or displacement) was less than 0.05 µM.
Regarding `Cc1cc(OCCCc2c(C(=O)N[C@@H]3CCC[C@@H](C(=O)O)C3)[nH]c3c(-c4c(C)nn(C)c4C)cccc23)cc(C)c1Cl`, the Ki was less than 0.05 µM.
`Cc1cc(OCCCc2c3n(c4c(-c5c(C)nn(C)c5C)cccc24)CCCN(c2ccnc4c(C(=O)O)cccc24)C3=O)cc(C)c1Cl` registered a Ki of less than 0.05 µM.
`Cc1cc(OCCCc2c(C(=O)N3CCN(c4ccc(C(=O)O)cc4)CC3)n(CCN3CCOCC3)c3c(-c4c(C)nn(C)c4C)c(Cl)ccc23)cc(C)c1Cl` showed an inhibition constant Ki of less than 0.05 µM.
In the case of `Cc1cc(OCCCc2c3n(c4c(-c5c(C)nn(C)c5C)c(Cl)ccc24)CCCN(c2ccc(C(=O)O)c4c2ccn4C)C3=O)cc(C)c1Cl`, the Ki is less than 0.05 µM.
`Cc1cc(OCCCc2c(C(=O)N[C@H]3CC[C@@H](C(=O)O)CC3)[nH]c3c(-c4c(C)nn(C)c4C)cccc23)cc(C)c1Cl` returned a Ki of less than 0.05 µM.
With `Cc1cc(OCCCc2c3n(c4c(-c5c(C)nn(C)c5C)c(Cl)ccc24)CCCN(c2ccc(C(=O)O)c4ncccc24)C3=O)cc(C)c1Cl`, the Ki was less than 0.05 µM.
For the compound `Cc1cc(OCCCc2c(C(=O)NCc3cc(C(=O)O)cc(Cl)n3)[nH]c3c(-c4c(C)nn(C)c4C)cccc23)cc(C)c1Cl`, the Ki is less than 0.05 µM.
For `Cc1cc(OCCCc2c3n(c4c(-c5c(C)nn(C)c5C)c(Cl)ccc24)[C@H](C)CN(c2ccc(C(=O)O)c4ncccc24)C3=O)cc(C)c1Cl` the value was less than 0.05 µM.
